{"source": "patent US20240002470A1", "about": "“Method for separation and/or detection and/or in vitro quantification of infectious compounds in biological material” (priority 2020, published 2024)", "molecules": {"B1": {"name": "β2GPI: plasma glycoprotein called β2-glycoprotein I, grafted on beads as the reference (protein, UniProt P02749 20-345, looked up)", "Beta-2-glycoprotein 1": "GRTCPKPDDLPFSTVVPLKTFYEPGEEITYSCKPGYVSRGGMRKFICPLTGLWPINTLKCTPRVCPFAGILENGAVRYTTFEYPNTISFSCNTGFYLNGADSAKCTEEGKWSPELPVCAPIICPPPSIPTFATLRVYKPSAGNNSLYRDTAVFECLPQHAMFGNDTITCTTHGNWTKLPECREVKCPFPSRPDNGFVNYPAKPTLYYKDKATFGCHDGYSLDGPEEIECTKLGNWSAMPSCKASCKVPVKKATVVYQGERVKIQEKFKNGMLHGDKVSFFCKNKEKKCSYTEDAQCIDGTIEVPKCFKEHSSLAFWKTDASDVKPC", "modifications": "grafted on beads"}}, "format_in_all_cases": "binding", "key": {"S. aureus ATCC 6538": {"system": "S. aureus ATCC 6538", "test": "Capture on magnetic microbeads coated with pepβ2GPI: C5 S. aureus ATCC 6538", "procedure": "(§1) To test the interaction of microbeads coated with β2GPI and the peptides derived from them, with bacteria present in the blood, 1 ml of blood culture is taken from each sample and placed in a 15 ml tube. 20 μl of microbeads are added and each tube is incubated at 37° C. with horizontal shaking. The tubes are then placed in a magnetic field which retains the microbeads on the wall and the supernatant is removed. The microbeads are then washed twice with sterile PBS, of the same composition as previously indicated; the microbeads are then resuspended in 150 μl of BTS culture medium. Two methods for detecting bacteria captured by microbeads were used: culture on TS agar and PCR For the detection of the bacterial capture by culture, 50 μl of the suspension of microbeads thus obtained are taken and they are spread out in a Petri dish containing TS agar. Petri dishes are incubated in an oven at 37° C. for 24 hours. The bacteria that have grown on the agar were then counted.\n(§2) The tested bacteria are: C3 E. coli ATCC 11105, C5 S. aureus ATCC 6538, H61 E. coli B6054, C1: E. coli ATCC 8739, H46: C. albicans 1 and H: 60 SCN\n(§3) The same protocol and primers as those described in example 9 were carried out."}, "[1]": {"system": "BVDV virus (Bovine viral Diarrhea Virus)", "test": "Capture of BVDV virus on magnetic microbeads coated with pepβ2GPI", "procedure": "(§4) The pepβ2GPI were grafted onto the microbeads according to the supplier's recommendations. In summary, the microbeads are suspended in phosphate buffer at a pH of 6.0. The beads are then activated, for 15 minutes, in the presence of 1-ethyl-3-(3-Dimethylaminopropyl) carbodiimide and N-hydroxysuccinimide. After washing with HCl, 2 mM, the beads are suspended in a phosphate buffer at a pH of 7.5, containing the pepβ2GPI. The concentration of pepβ2GPI in this coupling buffer is 20 mg/L; the microbeads are incubated in the buffer with gentle and constant shaking at a temperature of 25° C. for 3 hours. The microbeads are then centrifuged at 1,500 rpm and the supernatant is removed; the centrifugation pellet is suspended in the same buffer as that used for the coupling of pepβ2GPI, which forms the suspension of microbeads coated with pepβ2GPI which we want to test.\n(§5) One hundred microliters of viral culture supernatant to be studied are placed in an Eppendorf tube with 900 microliters of Tris buffer at a pH of 7.5 and 10 microliters of microbeads. The tubes are shaken horizontally to mix the microbeads well, and each tube is incubated at 37° C. or at room temperature (RT=22° C.) for 30 minutes. In each tube, the microbeads are then separated from the liquid phase by means of a magnet, placed externally against the wall of the tube, and the viral RNA is extracted. The beads are brought into contact with a viral lysis buffer, included in an RNA extraction kit: QIAamp RNA viral kit, sold by QIAGEN and the viral RNA is isolated according to the seller's recommendations.\n(§6) The viruses tested are the HSV virus (Herpes Simplex virus) and the BVDV virus (Bovine viral Diarrhea Virus).\n(§7) The same protocol as that described in example 1 was carried out."}, "[2]": {"system": "endogenous human retrovirus antigen (HERV), envelope protein of HERV-W", "test": "Capture of HERV antigen from serum on ELISA-type microtiter plates", "procedure": "The desired compound is an endogenous human retrovirus antigen (HERV: human endogenous retrovirus). Their research was carried out on serum from patients with autoimmune pathologies as well as on serum from healthy donors.\nThe support used is a microtiter plate of the ELISA type, with 96 wells and flat bottom, sold by the company “DYNATECH”. Four samples of serum from healthy donors and four samples from patients with autoimmune disease were used.\nThe serum sample is diluted ten times in 50 mM Tris-HCl buffer, pH 7.6±0.05.\n100 μl of this solution are placed at the bottom of each well of the microplate.\nThis is then incubated at +37° C. for 90 minutes. The liquid from each well is then aspirated. Then 300 to 400 μl of phosphate buffer containing 0.01 mole/I of sodium and disodium phosphates and 0.15 mole/I of sodium chloride and having a pH of 7.00±0.05 are introduced into each well.\nIt is left in contact with the support for 3 minutes and the buffer is aspirated; this washing operation is carried out three times.\nNext, 100 μl of a specific murine monoclonal antibody solution directed against the envelope protein of the endogenous HERV-W retrovirus is added per well.\nThe plate is left at 37° C. for 60 minutes.\n(§8) Following this incubation, the contents of the wells of the plate are aspirated. 300 to 400 μl of phosphate buffer, described above, are introduced into each well, and after a contact time of 3 minutes, the buffer is aspirated; this washing operation is carried out three times.\nas §8, with “Then, 100 μL of a solution of a polyclonal antibody recognizing the murine antibodies are added per well. The plate is left at 37° C. for 60 minutes. Following” for “Following”, “six” for “three”\n100 μl of a solution of o-phenylene diamine, 2HCl in a sodium citrate buffer are added per well. It is left to incubate for 30 minutes at room temperature, then the reaction is stopped by adding to each well 50 μl of 2N H2 SO4. The absorbance at 492 nm obtained at the end of the reaction is measured using a plate reader robot.\nResults in the following table are expressed in P/2N, P corresponding to the average of the absorbances obtained for a given serum and N corresponding to the average of the absorbances obtained from healthy donors, multiplied by 2."}, "[3]": {"system": "HSV virus (Herpes Simplex virus)", "test": "Capture of HSV virus on magnetic microbeads coated with pepβ2GPI", "procedure": "as §4, §5, §6, §7"}, "E. coli ATCC 11105": {"system": "E. coli ATCC 11105", "test": "Capture on magnetic microbeads coated with pepβ2GPI: C3 E. coli ATCC 11105", "procedure": "as §1, §2, §3"}, "E. coli B6054": {"system": "E. coli B6054", "test": "Capture on magnetic microbeads coated with pepβ2GPI: H61 E. coli B6054", "procedure": "as §1, §2, §3"}, "[4]": {"settings": "serum 6s (patient with autoimmune pathology)"}, "[5]": {"settings": "serum 45s (patient with autoimmune pathology)"}, "[6]": {"settings": "serum 99s (patient with autoimmune pathology)"}, "[7]": {"settings": "serum 100s (patient with autoimmune pathology)"}}, "data": [{"molecule": "H-((SSLAFWK)2-K)2-K—NH2 [Peptide P11]", "values": [{"measurement": "Capture of C5 S. aureus ATCC 6538", "setting": "S. aureus ATCC 6538", "value": 63, "unit": "%"}, {"measurement": "Capture of BVDV virus", "setting": "[1]", "value": 266, "unit": "%"}, {"measurement": "P/2N", "setting": "[2]; [4]", "value": 1.185}, {"measurement": "P/2N", "setting": "[2]; [5]", "value": 1.228}, {"measurement": "P/2N", "setting": "[2]; [6]", "value": 0.977}, {"measurement": "P/2N", "setting": "[2]; [7]", "value": 4.039}, {"measurement": "P/2N", "setting": "[2]; serum DS 45s (healthy donor)", "value": 0.77}, {"measurement": "P/2N", "setting": "[2]; serum DS 46s (healthy donor)", "value": 0.718}, {"measurement": "P/2N", "setting": "[2]; serum DS 60s (healthy donor)", "value": 0.631}, {"measurement": "P/2N", "setting": "[2]; serum DS 61s (healthy donor)", "value": 0.727}, {"measurement": "Capture of HSV virus", "setting": "[3]", "value": 123, "unit": "%"}, {"measurement": "Capture of C3 E. coli ATCC 11105", "setting": "E. coli ATCC 11105", "value": 43, "unit": "%"}, {"measurement": "Capture of H61 E. coli B6054", "setting": "E. coli B6054", "value": 90, "unit": "%"}]}, {"molecule": "B1", "values": [{"measurement": "P/2N", "setting": "[2]; [4]", "value": 0.928}, {"measurement": "P/2N", "setting": "[2]; [5]", "value": 1.112}, {"measurement": "P/2N", "setting": "[2]; [6]", "value": 0.974}, {"measurement": "P/2N", "setting": "[2]; [7]", "value": 4.9}, {"measurement": "P/2N", "setting": "[2]; serum DS 45s (healthy donor)", "value": 0.69}, {"measurement": "P/2N", "setting": "[2]; serum DS 46s (healthy donor)", "value": 0.79}, {"measurement": "P/2N", "setting": "[2]; serum DS 60s (healthy donor)", "value": 0.637}, {"measurement": "P/2N", "setting": "[2]; serum DS 61s (healthy donor)", "value": 0.498}]}]}
